# Laboratory results as given in ChEMBL document CHEMBL1144517, “Structural requirement of chalcones for the inhibitory activity of interleukin-5” (Bioorg Med Chem, 2007).
# What was measured:
# [1] = Inhibition of IL5 in mouse Y16 cells; type: functional; set-up: concentration or dose not given beside the values
# [2] = Inhibition of IL5 in mouse Y16 cells […]; type: functional, cell-based
SMILES,IC50 [2] [µM],Inhibition [1] [%]
O=C(/C=C/c1ccc(Cl)cc1)c1c(O)cccc1OCC1CCCCC1,7.1,98.8
O=C(/C=C/c1ccc(CO)cc1)c1c(O)cccc1OCC1CCCCC1,6.4,99.3
COC(=O)c1ccc(/C=C/C(=O)c2c(O)cccc2OCC2CCCCC2)cc1,3.9,98.6
O=C(O)c1cccc(/C=C/C(=O)c2c(O)cccc2OCC2CCCCC2)c1,14.1,98.1
O=C(/C=C/c1ccccc1)c1c(O)cccc1OCC1CCCCC1,14.3,99.6
CCc1ccc(/C=C/C(=O)c2c(O)cccc2OCC2CCCCC2)cc1,27.9,82.3
COCOc1ccc(/C=C/C(=O)c2c(O)cccc2OCC2CCCCC2)cc1,> 50,13
O=C(/C=C/c1ccc(O)cc1)c1ccc(OCC2CCCCC2)cc1O,21.4,59.7
O=C(O)c1ccccc1/C=C/C(=O)c1c(O)cccc1OCC1CCCCC1,> 50,-18.9
Nc1ccc(/C=C/C(=O)c2c(O)cccc2OCC2CCCCC2)cc1,> 50,16.4
NS(=O)(=O)c1ccc(/C=C/C(=O)c2c(O)cccc2OCC2CCCCC2)cc1,1.8,99.5
O=C(/C=C/c1ccc(O)cc1)c1c(O)cccc1OCC1CCCCC1,12.6,99
CC(=O)Nc1ccc(/C=C/C(=O)c2c(O)cccc2OCC2CCCCC2)cc1,6.4,99.2
O=C(O)c1ccc(CCC(=O)c2c(O)cccc2OCC2CCCCC2)cc1,> 50,15.6
O=Cc1ccc(/C=C/C(=O)c2c(O)cccc2OCC2CCCCC2)cc1,4.5,99.8

# The next lines start with results.
IC50 [2] [µM],SMILES,Inhibition [1] [%]
28.8,O=C(/C=C/c1ccc(O)cc1)c1ccc(OCc2ccccc2)cc1O,77.6
9.4,O=C(O)c1ccc(/C=C/C(=O)c2c(O)cccc2OCC2CCCCC2)cc1,100
10.2,O=C(O)c1ccc(/C=C/C(=O)c2c(O)cccc2OCc2ccccc2)cc1,100
> 50,O=C(O)c1ccc(/C=C/C(=O)c2ccccc2OCc2ccccc2)cc1,15
10.8,O=C(O)c1ccc(/C=C/C(=O)c2ccc(OCC3CCCCC3)cc2O)cc1,100
14.2,O=C(O)c1ccc(/C=C/C(=O)c2ccc(OCc3ccccc3)cc2O)cc1,100
48.2,O=C(/C=C/c1ccc(O)cc1)c1ccccc1O,50
> 50,COCOc1ccc(/C=C/C(=O)c2c(O)cccc2OCc2ccccc2)cc1,47.8
7,NS(=O)(=O)c1ccc(/C=C/C(=O)c2c(O)cccc2OCc2ccccc2)cc1,99.5
> 50,O=C(O)c1ccc(/C=C/C(=O)c2ccccc2O)cc1,-18.7
25.3,O=C(/C=C/c1ccc(O)cc1)c1c(O)cccc1OCc1ccccc1,78.8
